According to ChEMBL document CHEMBL5154892, “Structure-Based Optimization and Characterization of Macrocyclic Zika Virus NS2B-NS3 Protease Inhibitors” (J Med Chem, 2022):
pKi: −log10 of the molar value. Active and inactive are the calls of the source. The rule behind the calls is not given here. *1 amine or outer side, *2 acyl side, *3 side chain or, on linkers, in order; H or OH if unused. Where a SMILES comes first, the peptide text is derived from it. [ ]: non-standard residue; d: D form. X2 = N=C(N)N[C@H](CCOCN[*:1])C(=O)[*:2]; X3 = O=C([C@@H](CN[*:1])Cc1ccccc1)[*:2]; X1 = O=C([C@H](CN[*:1])Cc1ccccc1)[*:2]; NMeβAla = CN(CCC(=O)[*:2])[*:1]; βAla = NCCC(=O)O; Sar = CNCC(=O)O

Legend:
[1] = Binding affinity to West Nile virus NSB2 (52 to 96 amino acids)-NS3 (1 to 184 amino acids) protease using Phac-Leu-Lys-Lys-Arg-AMC as substrate measured immediately upto 10 mins by fluorogenic assay
[2] = Binding affinity to Zika virus NS2B-NS3 protease using Phac-Leu-Lys-Lys-Arg-AMC as substrate measured immediately upto 10 mins by fluorogenic assay
Prothrombin (Bos taurus) = Prothrombin (Bos taurus) (UniProt P00735); experiment: Inhibition of bovine thrombin at 100 uM using Tos-Gly-Pro-Arg-AMC as substrate by fluorescence plate reader analysis
Trypsin (Sus scrofa) = Trypsin (Sus scrofa) (UniProt P00761); experiment: Inhibition of porcine trypsin at 100 uM using Mes-D-Arg-Gly-Arg-AMC a substrate by fluorescence plate reader analysis
Trypsin (Sus scrofa), sequence (P00761 whole entry): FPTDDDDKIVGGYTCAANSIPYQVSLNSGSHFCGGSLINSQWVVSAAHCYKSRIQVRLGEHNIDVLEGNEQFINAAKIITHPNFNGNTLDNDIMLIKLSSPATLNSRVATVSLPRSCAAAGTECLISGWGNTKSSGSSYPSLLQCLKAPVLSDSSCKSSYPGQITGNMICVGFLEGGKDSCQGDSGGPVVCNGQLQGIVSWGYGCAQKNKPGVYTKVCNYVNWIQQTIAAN

A549 [3] = experiment: Cytotoxicity against human A549 cells assessed as cell viability upto 80 uM and measured after 24 to 48 hrs by PrestoBlue dye based microplate reader analysis; type: toxicity; conditions: a549, 80 µM, time 24-48 hrs
Zika virus [4] = experiment: Antiviral activity against ZIKV H/PF/2013 infected in human A549 cells assessed as reduction in extracellular virus titer in cell supernatant at 80 uM measured after 24 hrs post infection by plaque assay based crystal violet staining analysis; type: functional, organism-based
Zika virus [5] = experiment: Antiviral activity against Zika virus infected in human A549 cells assessed as reduction in luciferase activity at 20 uM measured up to 48 hrs post infection by luciferase assay; type: functional, organism-based
Zika virus [6] = experiment: Antiviral activity against ZIKV H/PF/2013 infected in human A549 cells assessed as reduction in intracellular virus titer at 80 uM measured after 48 hrs post infection by plaque assay based crystal violet staining analysis; type: functional, organism-based
Zika virus [7] = experiment: Antiviral activity against ZIKV H/PF/2013 infected in human A549 cells assessed as reduction in number of infected cells at 80 uM measured after 24 hrs post infection by immunofluorescence microscopic analysis relative to control; type: functional, organism-based
Zika virus [8] = experiment: Antiviral activity against ZIKV H/PF/2013 infected in human A549 cells assessed as reduction in extracellular virus titer in cell supernatant at 80 uM measured after 48 hrs post infection by plaque assay based crystal violet staining analysis; type: functional, organism-based
A549 [9] = experiment: Cytotoxicity against human A549 cells assessed as cell viability at 2.5 to 160 uM measured after 24 to 48 hrs by PrestoBlue dye based microplate reader analysis; type: toxicity; conditions: a549, 160 µM, dose lower 2.5 µM, time lower 24 hrs, dose upper 160 µM, time upper 48 hrs

SMILES | pKi [1] | pKi [2] | also measured
N=C(N)N[C@@H]1CCOCNC(=O)[C@H](CCCCN)NC(=O)[C@H](CCCCN)NC(=O)Cc2cccc(c2)CNC(=O)[C@@H](CCc2ccccc2)NC1=O | 6.48 | 8.22 | 
N=C(N)N[C@@H]1CCOCNC(=O)[C@H](CCCCN)NC(=O)[C@H](CCCCN)NC(=O)Cc2cccc(c2)CNC(=O)[C@@H](Cc2ccccc2)NC1=O | 6.16 | 8.27 | 
C[C@@H]1NC(=O)CNC(=O)CNC(=O)[C@H](NC(=N)N)CCOCNC(=O)[C@H](CCCCN)NC(=O)[C@H](CCCCN)NC1=O | 5.93 | 7.04 | 
N=C(N)N[C@@H]1CCOCNC(=O)[C@H](CCCCN)NC(=O)[C@H](CCCCN)NC(=O)CNC(=O)Cc2cccc(c2)CNC1=O | 5.75 | 7.39 | 
C[C@@H]1NC(=O)CCNC(=O)CNC(=O)[C@H](NC(=N)N)CCOCNC(=O)[C@H](CCCCN)NC(=O)[C@H](CCCCN)NC1=O | 5.11 | 7.12 | 
N=C(N)N[C@@H]1CCOCNC(=O)[C@H](CCCCN)NC(=O)[C@H](CCCCN)NC(=O)[C@@H](c2ccccc2)NC(=O)CCNC(=O)CNC1=O | 6.43 | 8.32 | inhibition (Prothrombin (Bos taurus)): 55%; inhibition (Trypsin (Sus scrofa)): 33%
N=C(N)N[C@@H]1CCOCNC(=O)[C@H](CCCCN)NC(=O)[C@H](CCCCN)NC(=O)[C@@H](CCc2ccccc2)NC(=O)CCNC(=O)CNC1=O | 5.89 | 7.99 | 
N=C(N)N[C@@H]1CCOCNC(=O)[C@H](CCCCN)NC(=O)[C@H](CCCCN)NC(=O)[C@H](Cc2ccccc2)CNC(=O)CNC(=O)CNC1=O (cyclo(GG[X3]KK[X2])) | 5.19 | 7.07 | 
N=C(N)N[C@@H]1CCOCNC(=O)[C@H](CCCCN)NC(=O)[C@H](CCCCN)NC(=O)Cc2cccc(c2)CNC(=O)CNC1=O |  |  | Activity (A549 [3]): Non-Toxic; inhibition (Prothrombin (Bos taurus)): < 30%; Activity (Zika virus [4]): Active; inhibition (Trypsin (Sus scrofa)): < 10%; Activity (Zika virus [5]): Active
CN1CCC(=O)N[C@@H](CCCCN)C(=O)N[C@@H](CCCCN)C(=O)NCOCC[C@@H](NC(=N)N)C(=O)NCC(=O)NCC1=O (cyclo(GG[NMeβAla]KK[X2])) | 4.43 | 6.31 | 
N=C(N)N[C@@H]1CCOCNC(=O)[C@H](CCCCN)NC(=O)[C@H](CCCCN)NC(=O)Cc2cccc(c2)CNC(=O)[C@@H](CCC2CCCCC2)NC1=O.O=C(O)C(F)(F)F | 6.66 | 8.63 | Activity (A549 [3]): Non-Toxic; inhibition (Prothrombin (Bos taurus)): < 30%; Activity (Zika virus [6]): Active; Activity (Zika virus [4]): Active; Activity (Zika virus [7]): Active; Activity (Zika virus [8]): Active; inhibition (Trypsin (Sus scrofa)): < 10%; Activity (Zika virus [5]): Active
N=C(N)N[C@@H]1CCOCNC(=O)[C@H](CCCCN)NC(=O)[C@H](CCCCN)NC(=O)[C@@H](Cc2ccccc2)NC(=O)CCNC(=O)CNC1=O.O=C(O)C(F)(F)F | 5.72 | 8.51 | inhibition (Prothrombin (Bos taurus)): < 30%; Activity (A549 [9]): Toxic; inhibition (Trypsin (Sus scrofa)): < 10%; Activity (Zika virus [5]): Active
N=C(N)N[C@@H]1CCOCNC(=O)[C@H](CCCCN)NC(=O)[C@H](CCCCN)NC(=O)CCNC(=O)CNC(=O)CNC1=O (cyclo(GG[βAla]KK[X2])) |  |  | Activity (A549 [3]): Non-Toxic; inhibition (Prothrombin (Bos taurus)): < 30%; inhibition (Trypsin (Sus scrofa)): < 10%; Activity (Zika virus [5]): Active
C[C@H]1NC(=O)CCNC(=O)CNC(=O)[C@H](NC(=N)N)CCOCNC(=O)[C@H](CCCCN)NC(=O)[C@H](CCCCN)NC1=O | 5.84 | 8.25 | 
CC(C)[C@@H]1NC(=O)CCNC(=O)CNC(=O)[C@H](NC(=N)N)CCOCNC(=O)[C@H](CCCCN)NC(=O)[C@H](CCCCN)NC1=O | 4.40 | 6.47 | 
N=C(N)N[C@@H]1CCOCNC(=O)[C@H](CCCCN)NC(=O)[C@H](CCCCN)NC(=O)[C@@H](Cc2ccccc2)CNC(=O)CNC(=O)CNC1=O (cyclo(GG[X1]KK[X2])) | 4.83 | 7.20 | inhibition (Prothrombin (Bos taurus)): < 30%; inhibition (Trypsin (Sus scrofa)): < 10%

SMILES | pKi [1] | pKi [2] | also measured
N=C(N)N[C@@H]1CCOCNC(=O)[C@H](CCCCN)NC(=O)[C@H](CCCCN)NC(=O)[C@@H](Cc2ccccc2)NC(=O)CNC(=O)CNC1=O (racemic) | 4.76 | 6.86 | 
CN1CC(=O)NCC(=O)NCCC(=O)N[C@@H](CCCCN)C(=O)N[C@@H](CCCCN)C(=O)NCOCC[C@@H](NC(=N)N)C1=O (cyclo(G[βAla]KK[X2][Sar])) | 4.52 | 6.48 | 
CN1CC(=O)NCCC(=O)N[C@@H](CCCCN)C(=O)N[C@@H](CCCCN)C(=O)NCOCC[C@@H](NC(=N)N)C(=O)NCC1=O (cyclo(G[Sar][βAla]KK[X2])) | 4.51 | 6.48 | 
N=C(N)N[C@@H]1CCOCNC(=O)[C@H](CCCCN)NC(=O)[C@H](CCCCN)NC(=O)Cc2cccc(c2)CNC(=O)[C@@H](CC2CCCCC2)NC1=O | 6.40 | 8.44 | inhibition (Prothrombin (Bos taurus)): < 30%; inhibition (Trypsin (Sus scrofa)): < 10%
N=C(N)N[C@@H]1CCOCNC(=O)[C@H](CCCCN)NC(=O)[C@H](CCCCN)NC(=O)[C@H](Cc2ccccc2)NC(=O)CNC(=O)CNC1=O | 6.18 | 7.50 | 
N=C(N)N[C@@H]1CCOCNC(=O)[C@H](CCCCN)NC(=O)[C@H](CCCCN)NC(=O)CCNC(=O)Cc2cccc(c2)CNC1=O | 4.25 | 7.09 | 
CC(C)[C@H]1NC(=O)[C@H](NC(=N)N)CCOCNC(=O)[C@H](CCCCN)NC(=O)[C@H](CCCCN)NC(=O)Cc2cccc(c2)CNC1=O | 6.36 | 8.11 | 
CCCC[C@H]1NC(=O)CCNC(=O)CNC(=O)[C@H](NC(=N)N)CCOCNC(=O)[C@H](CCCCN)NC(=O)[C@H](CCCCN)NC1=O | 6.05 | 8.31 | 
CC(C)[C@H]1NC(=O)CCNC(=O)CNC(=O)[C@H](NC(=N)N)CCOCNC(=O)[C@H](CCCCN)NC(=O)[C@H](CCCCN)NC1=O.O=C(O)C(F)(F)F | 5.77 | 8.08 | Activity (A549 [3]): Non-Toxic
CC(C)C[C@H]1NC(=O)[C@H](NC(=N)N)CCOCNC(=O)[C@H](CCCCN)NC(=O)[C@H](CCCCN)NC(=O)Cc2cccc(c2)CNC1=O | 6.56 | 8.02 | inhibition (Prothrombin (Bos taurus)): < 30%; inhibition (Trypsin (Sus scrofa)): < 10%
CC(C)C[C@@H]1NC(=O)CCNC(=O)CNC(=O)[C@H](NC(=N)N)CCOCNC(=O)[C@H](CCCCN)NC(=O)[C@H](CCCCN)NC1=O | 4.99 | 6.91 | 
N=C(N)N[C@@H]1CCOCNC(=O)[C@H](CCCCN)NC(=O)[C@H](CCCCN)NC(=O)[C@@H](CC2CCCCC2)NC(=O)CCNC(=O)CNC1=O | 6.13 | 8.16 | inhibition (Prothrombin (Bos taurus)): < 30%; inhibition (Trypsin (Sus scrofa)): < 10%
N=C(N)N[C@@H]1CCOCNC(=O)[C@H](CCCCN)NC(=O)[C@H](CCCCN)NC(=O)[C@H]2CCCN2C(=O)CCNC(=O)CNC1=O | 5.59 | 7.68 | 
CC(C)C[C@H]1NC(=O)CCNC(=O)CNC(=O)[C@H](NC(=N)N)CCOCNC(=O)[C@H](CCCCN)NC(=O)[C@H](CCCCN)NC1=O | 5.99 | 8.37 | 
C[C@H]1NC(=O)CNC(=O)CNC(=O)[C@H](NC(=N)N)CCOCNC(=O)[C@H](CCCCN)NC(=O)[C@H](CCCCN)NC1=O | 5.16 | 6.73 | 
